Reference: the supplement of paper PMC10307832

Tests used:
Experiment in all cases: relative viability (nuclei count vs DMSO), 5 days (fraction); higher = more cells survive
[1] = compound: NC1(c2ccc(-c3nc4ccn5c(=O)[nH]nc5c4cc3-c3ccccc3)cc2)CCC1 [MK-2206]
In short: (§1)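 Viability was defined as treated-well nuclei divided by vehicle-well nuclei, with the median taken over replicate plates. Cells from lung cancer lines sat overnight at 37 °C in 1536-well plates, received five √10-spaced library-drug doses by pinning on vehicle-anchored plates, and grew 5 days without medium change before one-step fixation, permeabilisation and Hoechst staining, 4× imaging and MetaXpress nuclear counts. Only plates with control CV under 25% and at least one doubling were kept.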

[2] = compound: CS(=O)(=O)N1CCN(Cc2cc3nc(-c4cccc5[nH]ncc45)nc(N4CCOCC4)c3s2)CC1 [Pictilisib]
In short: as §1

[3] = compound: CS(=O)(=O)N1CCN(Cc2cc3nc(-c4cccc5[nH]ncc45)nc(N4CCOCC4)c3s2)CC1 [Pictilisib] + CS(=O)(=O)CCNCc1ccc(-c2ccc3ncnc(Nc4ccc(OCc5cccc(F)c5)c(Cl)c4)c3c2)o1 [Lapatinib] (partner 2 µM)
In short: (§2)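 Lung cancer cell lines in 1536-well plates were dosed by pin tool the day after seeding, either with one drug alone or with a fixed anchor-drug dose plus five library-drug doses (not always all listed) in √10 steps. After 5 days, cells were fixed and their nuclei stained in one step (final 0.05% Triton X-100, 1% formaldehyde, 1 ug/ml Hoechst), then counted on 4× images. Relative viability is the nuclei count in treated wells divided by that in vehicle wells. Values are medians of duplicate plates.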

[4] = compound: NC1(c2ccc(-c3nc4ccn5c(=O)[nH]nc5c4cc3-c3ccccc3)cc2)CCC1 [MK-2206] + O=C(CCCCCCC(=O)Nc1ccccc1)NO [Vorinostat] (partner 1 µM)
In short: as §2

Cell Line | relative viability ([1]; 0.01 µM) | relative viability ([1]; 0.03162 µM) | relative viability ([1]; 0.3162 µM) | relative viability ([1]; 1 µM) | relative viability ([2]; 0.02 µM) | relative viability ([2]; 0.06325 µM) | relative viability ([2]; 0.6325 µM) | relative viability ([2]; 1 µM, anchor plate) | relative viability ([2]; 2 µM) | relative viability ([3]; first compound 0.02 µM) | relative viability ([3]; first compound 0.06325 µM) | relative viability ([3]; first compound 0.6325 µM) | relative viability ([3]; first compound 2 µM) | relative viability ([4]; first compound 0.01 µM) | relative viability ([4]; first compound 0.03162 µM) | relative viability ([4]; first compound 0.3162 µM) | relative viability ([4]; first compound 1 µM)
NCI-H322M | 0.914 | 1.06 | 0.981 | 1.05 | 0.988 | 0.973 | 0.714 | 0.531 | 0.453 | 0.57 | 0.588 | 0.493 | 0.423 | 0.844 | 0.936 | 0.944 | 0.977
NCI-H1734 | 1.01 | 0.988 | 0.764 | 0.795 | 1.04 | 0.998 | 0.623 | 0.475 | 0.435 | 1.1 | 1.11 | 0.653 | 0.41 | 0.877 | 0.822 | 0.629 | 0.67
NCI-H2228 | 0.871 | 0.845 | 0.658 | 0.517 | 0.962 | 0.998 | 0.742 | 0.413 | 0.361 | 1.18 | 1.12 | 0.586 | 0.339 | 0.741 | 0.857 | 0.588 | 0.386
EKVX | 1.01 | 0.952 | 0.936 | 0.758 | 0.911 | 0.941 | 0.91 | 0.433 | 0.453 | 0.212 | 0.215 | 0.186 | 0.136 | 0.681 | 0.684 | 0.648 | 0.693
NCI-H596 | 1.07 | 0.929 | 0.948 | 0.669 | 0.98 | 0.957 | 0.684 | 0.405 | 0.373 | 1.1 | 1.02 | 0.602 | 0.367 | 0.64 | 0.754 | 0.604 | 0.462
NCI-H1975 | 1.06 | 0.931 | 0.913 | 0.728 | 0.98 | 0.804 | 0.605 | 0.307 | 0.292 | 0.94 | 0.781 | 0.541 | 0.212 | 0.712 | 0.63 | 0.572 | 0.522
NCI-H2170 | 0.93 | 1.03 | 0.923 | 0.877 | 1 | 1.02 | 0.86 | 0.329 | 0.556 | 0.285 | 0.306 | 0.226 | 0.245 | 0.829 | 0.847 | 0.769 | 0.699
NCI-H1666 | 0.973 | 0.9 | 1.04 | 0.846 | 1.06 | 1.11 | 0.961 | 0.47 | 0.679 | 0.666 | 0.725 | 0.476 | 0.307 | 1.03 | 1.07 | 1.04 | 0.916
PC-3 [JPC-3] | 1.02 | 1.04 | 1.11 | 1.07 | 1.06 | 1.13 | 1.1 | 0.735 | 0.856 | 0.439 | 0.461 | 0.426 | 0.319 | 0.796 | 0.691 | 0.826 | 0.755
NCI-H1755 | 0.955 | 0.989 | 0.907 | 0.918 | 1.01 | 0.979 | 0.925 | 0.434 | 0.639 | 1.04 | 1 | 0.93 | 0.537 | 0.774 | 0.698 | 0.582 | 0.636
RERF-LC-KJ | 0.943 | 0.997 | 0.854 | 0.919 | 0.974 | 0.944 | 0.807 | 0.565 | 0.575 | 0.86 | 0.842 | 0.771 | 0.549 | 0.651 | 0.741 | 0.603 | 0.62
